*1 amine or outer side, *2 acyl side, *3 side chain or, on linkers, in order; H or OH if unused. Where a SMILES comes first, the peptide text is derived from it. [ ]: non-standard residue; d: D form. LeuΨ(S-CHOHCH2)Ala = CC(C)C[C@H](N[*:1])[C@@H](O)C[C@@H](C)C(=O)[*:2]
Target: T1, Beta-secretase 1 (Homo sapiens, UniProt P56817)
Experiment: Inhibition of BACE1 at 20 ug/ml by FRET assay
Conditions: not given

T1 sequence (P56817 whole entry): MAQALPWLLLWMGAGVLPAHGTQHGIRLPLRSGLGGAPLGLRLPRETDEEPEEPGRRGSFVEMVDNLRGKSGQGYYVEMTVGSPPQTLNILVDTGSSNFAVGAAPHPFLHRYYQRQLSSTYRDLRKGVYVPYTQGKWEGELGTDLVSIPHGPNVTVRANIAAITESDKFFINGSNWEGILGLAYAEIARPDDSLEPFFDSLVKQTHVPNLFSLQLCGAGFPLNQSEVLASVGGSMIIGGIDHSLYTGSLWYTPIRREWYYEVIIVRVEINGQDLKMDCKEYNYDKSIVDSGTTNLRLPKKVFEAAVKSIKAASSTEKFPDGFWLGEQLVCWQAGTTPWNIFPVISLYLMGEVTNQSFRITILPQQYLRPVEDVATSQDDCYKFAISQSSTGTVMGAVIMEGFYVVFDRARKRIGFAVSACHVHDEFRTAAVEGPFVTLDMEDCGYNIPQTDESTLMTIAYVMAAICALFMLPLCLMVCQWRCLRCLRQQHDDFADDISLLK

SMILES	inhibition [%]
CCOC(=O)C1CCN(CCOc2ccc(Br)cc2NC(=O)Cc2cccc3ccccc23)CC1	34.8
O=C(Cc1cccc2ccccc12)Nc1cc(Br)ccc1OCCNC1CCCCC1	64.5
O=S(=O)(Nc1cc(Br)ccc1OCCN1CCOCC1)c1ccc(Br)cc1	14.3
O=C(Cc1cccc2ccccc12)Nc1cc(Br)ccc1OCCN1CCOCC1	39.4
O=C(CCc1ccccc1)Nc1cc(Br)ccc1OCCN1CCOCC1	13.8
CCOC(=O)CN(C)CCOc1ccc(Br)cc1NC(=O)Cc1cccc2ccccc12	24.7
CN(CCOc1ccc(Br)cc1NC(=O)Cc1cccc2ccccc12)Cc1ccccc1	41.8
O=C(Cc1cccc2ccccc12)Nc1cc(Br)ccc1OCCNCCCO	15.1
NCCCCCCNCCOc1ccc(Br)cc1NC(=O)Cc1cccc2ccccc12	83.7

Target: T1, Beta-secretase 1
Experiment: Inhibition of BACE1 by FRET assay
Conditions: not given

SMILES	IC50 [µM]
O=C(Cc1cccc2ccccc12)Nc1cc(Br)ccc1OCCNC1CCCCC1	47.1
NCCCCCCNCCOc1ccc(Br)cc1NC(=O)Cc1cccc2ccccc12	18.3

Target: T1, Beta-secretase 1
Conditions: 2 ug/ml
Description: Inhibition of BACE1 at 2 ug/ml by FRET assay

SMILES	inhibition [%]
CC(C)C[C@H](NC(=O)[C@H](CC(N)=O)NC(=O)[C@@H](NC(=O)[C@@H](N)CCC(=O)O)C(C)C)[C@@H](O)C[C@@H](C)C(=O)N[C@@H](C)C(=O)N[C@@H](CCC(=O)O)C(=O)N[C@@H](Cc1ccccc1)C(=O)O (H-EVN[LeuΨ(S-CHOHCH2)Ala]AEF-OH)	102
